Values of other authors, collected in patent publication US20110151497A1, “METABOLOMIC PROFILING OF PROSTATE CANCER” (THE REGENTS OF THE UNIVERSITY OF MICHIGAN, priority 2009, published 2011).

Conditions: humans, isotope labeling

- fraction of dietary stearic acid oxidatively desaturated to oleic acid relative to fraction of palmitic acid converted to palmitoleic acid: 2.4 times
Structure (SMILES): CCCCCCCCCCCCCCCCCC(=O)O [stearic acid]
